The source made the active and inactive calls. No cut-off for these calls is given here.

Our source for the T/C and Weight change values is ChEMBL document CHEMBL1122755, “Synthesis and murine antineoplastic activity of bis[(carbamoyloxy)methyl] derivatives of pyrrolo[2,1-a]isoquinoline” (1984).

For test [1], the system named is Mus musculus. Briefly: % T/C value was measured against Murine P388 Lymphocytic Leukemia cells in CDF1 mice at the dose 6.25 mg/kg. It is filed as functional.
Test [2] relates to Mus musculus. Briefly: Change in weight of P388 lymphocytic leukemia infected mice was determined when the compound was administered at dose of 3.13 mg/kg. It is filed as functional.
The test system of test [3] is Mus musculus. Briefly: % T/C value was measured against Murine P388 Lymphocytic Leukemia cells in CDF1 mice at the dose 25 mg/kg; toxic. The class given is functional, organism-based. Further details: dose 25 mg/kg.
Test [4] relates to Mus musculus. Briefly: Change in weight of P388 lymphocytic leukemia infected mice was determined when the compound was administered at dose of 12.5 mg/kg. The class given is functional.
In test [5] the test system is Mus musculus. Briefly: % T/C value was measured against Murine P388 Lymphocytic Leukemia cells in CDF1 mice at the dose 100 mg/kg; toxic. It is filed as functional, organism-based. Also noted: dose 100 mg/kg.
The subject of test [6] is Mus musculus. Briefly: Change in weight of P388 lymphocytic leukemia infected mice was determined when the compound was administered at dose of 6.25 mg/kg. The class given is functional.
The subject of test [7] is Mus musculus. Briefly: % T/C value was measured against Murine P388 Lymphocytic Leukemia cells in CDF1 mice at the dose 200 mg/kg; toxic. Further details: dose 200 mg/kg. It is filed as functional, organism-based.
The test system of test [8] is Mus musculus. Briefly: % T/C value was measured against Murine P388 Lymphocytic Leukemia cells in CDF1 mice at the dose 3.13 mg/kg. The class given is functional.
Test [9] concerns Mus musculus. Briefly: % T/C value was measured against Murine P388 Lymphocytic Leukemia cells in CDF1 mice at the dose 50 mg/kg; toxic. It is filed as functional, organism-based. Further details: dose 50 mg/kg.
In test [10] the test system is Mus musculus. Briefly: % T/C value was measured against Murine P388 Lymphocytic Leukemia cells in CDF1 mice at the dose 12.5 mg/kg. It is filed as functional.
The test system of test [11] is Mus musculus. Briefly: % T/C value was measured against Murine P388 Lymphocytic Leukemia cells in CDF1 mice at the dose 25 mg/kg. The class given is functional.
For test [12], the system named is Mus musculus. Briefly: Change in weight of P388 lymphocytic leukemia infected mice was determined when the compound was administered at dose of 50 mg/kg. It is filed as functional.
For test [13], the system named is Mus musculus. Briefly: % T/C value was measured against Murine P388 Lymphocytic Leukemia cells in CDF1 mice at the dose 50 mg/kg. It is filed as functional.
In test [14] the test system is Mus musculus. Briefly: Change in weight of P388 lymphocytic leukemia infected mice was determined when the compound was administered at dose of 25 mg/kg. The class given is functional.
Test [15] deals with Homo sapiens. Briefly: Optimum % T/C value was measured against Human LX-1 lung Xenograft at the dose of 150 mg/kg, schedule was Q01DX03, day 1. The class given is functional. Background: A xenograft is tissue or cells of one species grown in another, often human tumour cells in immunodeficient mice.
The subject of test [16] is Mus musculus. Briefly: Optimum % T/C value was measured against Murine CD8F1 mammary cells at the dose of 250 mg/kg (subcutaneous), schedule was Q01DX01 (one dose), day 21(21 dose was given, tumor was implanted on day zero). It is filed as functional.
The subject of test [17] is Homo sapiens. Briefly: Optimum % T/C value was measured against Human MX-1 breast Xenograft at the dose of 600 mg/kg (s.c.), schedule was Q01DX03 (three doses), day 1(first dose was given, tumor was implanted on day zero). It is filed as functional.
Test [18] relates to Mus musculus. Briefly: Optimum % T/C value was measured against Murine colon 38 cells at the dose of 100 mg/kg (subcutaneous), schedule was Q01DX02 (two doses), day 2(second dose was given, tumor was implanted on day zero). The class given is functional, MC-38.
The test system of test [19] is Mus musculus. Briefly: Optimum % T/C value was measured against Murine B16 melanocarcinoma cells at the dose of 12.5 mg/kg, schedule was Q01DX09, day 1. It is filed as functional.
Test [20] has as its system Mus musculus. Briefly: Optimum % T/C value was measured against Murine Lewis lung carcinoma cells at the dose of 3.12-50mg/kg, schedule was Q01DX09 (nine doses), day 1(first dose was given, tumor was implanted on day zero); inactive. It is filed as functional, organism-based.
Test [21] concerns Mus musculus. Briefly: Optimum % T/C value was measured against Murine L1210 lymphoid leukemia cells at the dose of 25 mg/kg, schedule was Q01DX09 (nine doses), day 1(first dose was given, tumor was implanted on day zero). It is filed as functional.
Test [22] relates to Homo sapiens. Briefly: Optimum % T/C value was measured against Human CX-1 colon Xenograft at the dose of 300-600mg/kg, schedule was Q01DX04 (four doses), day 1(first dose was given, tumor was implanted on day zero); IA means inactive. The class given is functional, organism-based.
The test system of test [23] is Mus musculus. Briefly: % T/C value was measured against Murine P388 Lymphocytic Leukemia cells in CDF1 mice at the dose 200 mg/kg. It is filed as functional.
Test [24] concerns Mus musculus. Briefly: Change in weight of P388 lymphocytic leukemia infected mice was determined when the compound was administered at dose of 100 mg/kg. The class given is functional.
Test [25] deals with Mus musculus. Briefly: % T/C value was measured against Murine P388 Lymphocytic Leukemia cells in CDF1 mice at the dose 100 mg/kg. The class given is functional.
Test [26] concerns Mus musculus. Briefly: Change in weight of P388 lymphocytic leukemia infected mice was determined when the compound was administered at dose of 200 mg/kg. The class given is functional.

Turning to `CCNC(=O)OCc1cn2c(c1COC(=O)NCC)-c1ccccc1CC2C` (stereo not drawn), the T/C in the test on Mus musculus [1] was 141%; with Mus musculus [3] it was “Toxic”; with Mus musculus [5] it was “Toxic”; in the test on Mus musculus [7], “Toxic”; in the test with Mus musculus [8], 142%; in the test on Mus musculus [9], “Toxic”. Besides, the T/C with Mus musculus [10] is recorded as 185%. Also, the Weight change is recorded as -1.3 g with Mus musculus [2], -6 g in the test with Mus musculus [4] and -1.2 g in the test with Mus musculus [6].
For the compound `CNC(=O)OCc1c(COC(=O)NC)c(-c2ccc(OC)cc2)n(C)c1C`, the T/C in the test with Mus musculus [1] was 135%; with Mus musculus [11], 145%; in the test with Mus musculus [5], “Toxic”; in the test with Mus musculus [13], 152%; in the test on Mus musculus [10] it was 138%. Besides, the Weight change is given as -3.2 g with Mus musculus [4], -4.4 g with Mus musculus [12], -2.4 g in the test with Mus musculus [6] and -3.4 g in the test on Mus musculus [14].
For `COc1ccc2c(c1)CCn1c(C)c(COC(=O)NC(C)C)c(COC(=O)NC(C)C)c1-2`, the T/C in the test on Mus musculus [1] is 136%; with Homo sapiens [15], 55%; with Mus musculus [11], 153%; in the test with Mus musculus [16] it was -27%; with Mus musculus [5] it was “Toxic”; in the test on Homo sapiens [17] it was -100%. The T/C result in the test on Mus musculus [7] is “Toxic”; in the test with Mus musculus [18] it was 48%; in the test on Mus musculus [19] it was 180%; with Mus musculus [21], 152%; with Mus musculus [8] it was 142%; in the test on Mus musculus [9] it was “Toxic”. Further, in the test with Mus musculus [10], the T/C is reported as 153%. The Weight change in the test on Mus musculus [2] is -1.1 g; in the test on Mus musculus [4] it was -3 g; in the test with Mus musculus [6], -2.1 g; with Mus musculus [14], -5.6 g. Moreover, the T/C entry in the test with Mus musculus [20] and in the test on Homo sapiens [22] was “inactive” in each case.
Take `CNC(=O)OCc1c(COC(=O)NC)c(-c2ccccc2)n2c1CCC2`: the results for the T/C in the test on Mus musculus [23], in the test with Mus musculus [13] and in the test on Mus musculus [25] were 60%, 124% and 124%, respectively. For the same compound, the Weight change with Mus musculus [12] is reported as -2.1 g; in the test on Mus musculus [24], -1.8 g; in the test with Mus musculus [26] it was -3.5 g.
`CNC(=O)OCc1c(COC(=O)NC)c(-c2ccccc2)n(C)c1C`: the T/C is 135% in the test on Mus musculus [1]; 145% in the test with Mus musculus [11]; “Toxic” with Mus musculus [5]; 90% in the test with Mus musculus [13]; 130% in the test on Mus musculus [10]. In addition, the Weight change in the test with Mus musculus [4] is -3.3 g; in the test on Mus musculus [12] it was -4.6 g; in the test with Mus musculus [6], -2.5 g; in the test on Mus musculus [14], -3.9 g.
As to `CNC(=O)OCc1cn2c(c1COC(=O)NC)-c1ccccc1CC2C` (stereo not drawn), the T/C with Mus musculus [1] was 138%; with Mus musculus [11] it was 169%; in the test with Mus musculus [5] it was “Toxic”; with Mus musculus [13] it was 79%; in the test with Mus musculus [7], “Toxic”; in the test on Mus musculus [8] it was 138%. In the test with Mus musculus [10], the T/C is 153%. For the same compound, the Weight change was -0.3 g with Mus musculus [2]; -4.4 g with Mus musculus [4]; -5 g with Mus musculus [12]; -1 g with Mus musculus [6]; -4.8 g in the test with Mus musculus [14].
For `COc1ccc2c(c1)CCn1c(C)c(COC(=O)NC(=O)NC3CCCCC3)c(COC(=O)NC(=O)NC3CCCCC3)c1-2`, the T/C is 137% in the test on Mus musculus [1]; 137% in the test on Mus musculus [11]; 151% in the test with Mus musculus [13]; 92% in the test on Mus musculus [25]; “Toxic” in the test with Mus musculus [7]; 134% in the test with Mus musculus [10]. For the same compound, the Weight change was -4.4 g with Mus musculus [4]; -6.5 g in the test with Mus musculus [12]; -3.3 g in the test on Mus musculus [6]; -6 g in the test on Mus musculus [24]; -6.7 g with Mus musculus [14].
As to `CNC(=O)OCc1c(COC(=O)NC)c(-c2ccc(OC)cc2)n2c1CCC2`, the T/C is 132% with Mus musculus [11]; 131% in the test with Mus musculus [13]; 125% in the test with Mus musculus [25]; “Toxic” with Mus musculus [7]; 132% in the test with Mus musculus [10]. Further, the Weight change is recorded as -3.2 g in the test with Mus musculus [4], -4 g in the test on Mus musculus [12], -4 g in the test with Mus musculus [24] and -3.3 g in the test with Mus musculus [14].
For the compound `CC1Cc2ccccc2-c2c(COC(=O)NC3CCCCC3)c(COC(=O)NC3CCCCC3)cn21` (stereo not drawn), the T/C in the test on Mus musculus [11] was 182%; in the test with Mus musculus [5], “Toxic”; in the test on Mus musculus [13], 101%; in the test with Mus musculus [7] it was “Toxic”; in the test with Mus musculus [10], 178%. The Weight change is reported as -4.3% in the test with Mus musculus [4], -6.4% in the test on Mus musculus [12] and -4.6% with Mus musculus [14].
